What was measured:
[1] = target: T1, Francisella tularensis GyrB (ATP binding domain) (Francisella tularensis subsp. tularensis, UniProt Q5NHE7); test: biochemical; details: 1 h, read-out: decrease of binding of Novo-TRX to GyrB
[2] = target: T1, Francisella tularensis GyrB (ATP binding domain); test: biochemical
[3] = target: E. coli gyrase A2B2 heterotetramer (Escherichia coli, UniProt P0AES6); test: Gyrase activity; assay type: biochemical; details: 50 μM compound, 0.5 μg relaxed pHOT1 DNA, 1 h 37 °C

T1 sequence (Q5NHE7 1-805): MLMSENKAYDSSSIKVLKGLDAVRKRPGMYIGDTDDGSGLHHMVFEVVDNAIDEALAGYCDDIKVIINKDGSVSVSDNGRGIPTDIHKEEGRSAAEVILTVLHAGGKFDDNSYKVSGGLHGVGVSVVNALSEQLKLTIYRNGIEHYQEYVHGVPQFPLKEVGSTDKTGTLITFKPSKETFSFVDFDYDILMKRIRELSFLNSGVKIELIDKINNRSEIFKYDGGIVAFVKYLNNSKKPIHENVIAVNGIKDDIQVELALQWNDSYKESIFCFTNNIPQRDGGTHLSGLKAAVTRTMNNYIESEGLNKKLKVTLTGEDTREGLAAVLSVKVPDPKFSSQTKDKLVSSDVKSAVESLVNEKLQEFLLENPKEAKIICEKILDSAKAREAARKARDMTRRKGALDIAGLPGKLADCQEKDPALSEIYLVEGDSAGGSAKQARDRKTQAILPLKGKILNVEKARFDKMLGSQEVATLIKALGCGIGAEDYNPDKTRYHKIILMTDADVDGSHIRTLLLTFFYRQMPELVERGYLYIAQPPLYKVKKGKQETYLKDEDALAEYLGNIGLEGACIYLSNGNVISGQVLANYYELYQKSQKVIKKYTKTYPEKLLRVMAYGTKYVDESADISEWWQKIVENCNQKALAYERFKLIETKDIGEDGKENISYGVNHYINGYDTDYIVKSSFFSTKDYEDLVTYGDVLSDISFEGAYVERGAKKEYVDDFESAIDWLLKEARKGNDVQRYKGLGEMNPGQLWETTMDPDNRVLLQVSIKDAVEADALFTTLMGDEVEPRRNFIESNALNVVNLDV

CO[C@@H]1[C@@H](OC(N)=O)[C@@H](O)[C@H](Oc2ccc3c(O)c(NC(=O)c4ccc(O)c(CC=C(C)C)c4)c(=O)oc3c2C)OC1(C)C [novobiocin]
inhibition at 10 µM [1]: > 40%

CC(=O)[C@]1(O)Cc2c(O)c3c(c(O)c2[C@@H](O[C@H]2C[C@H](N)[C@H](O)[C@H](C)O2)C1)C(=O)c1ccccc1C3=O [idarubicin]
IC50 [2]: 1580 nM | inhibition of supercoiling of relaxed DNA [3]: less clear

COc1cccc2c1C(=O)c1c(O)c3c(c(O)c1C2=O)C[C@@](O)(C(C)=O)C[C@@H]3O[C@H]1C[C@H](N)[C@H](O)[C@H](C)O1 [daunorubicin]
IC50 [2]: 1460 nM | inhibition of supercoiling of relaxed DNA [3]: less clear

COc1cccc2c1C(=O)c1c(O)c3c(c(O)c1C2=O)C[C@@](O)(C(=O)CO)C[C@@H]3O[C@H]1C[C@H](N)[C@H](O)[C@H](C)O1 [doxorubicin]
IC50 [2]: 310 nM | inhibition of supercoiling of relaxed DNA [3]: inhibit supercoiling to the level of the no-gyrase control

CCNC(=O)Nc1nc2cc(-c3cccnc3)cc(-c3ccccn3)c2[nH]1 [Vertex-13, N-ethyl-N′-[7-(2-pyridinyl)-5-(3-pyridinyl)-1H-benzimidazol-2-yl]-urea]
IC50 [2]: 393 nM | potency relative to novobiocin in the F. tularensis system (fold less potent) [2]: approximately 10 fold

COc1cccc2c1C(=O)c1c(O)c3c(c(O)c1C2=O)C[C@@](O)(C(=O)CO)C[C@@H]3O[C@H]1C[C@H](N)[C@@H](O)[C@H](C)O1 [epirubicin]
IC50 [2]: 1270 nM | inhibition of supercoiling of relaxed DNA [3]: inhibit supercoiling to the level of the no-gyrase control
